# Structures can show the parent of a compound that is named as a salt.
# How the values were obtained:
# [1] = test system: spontaneous hypertensive rats (MHS); assay: effect of 5 week-treatment on the development of hypertension; SBP and HR by tail cuff method; type: in vivo, rat (MHS); details: 20 mg/Kg/os daily in Methocel 0.5%, 5 weeks; for SBP: n=7, controls 172 +/- 5,0; for HR: n=7, controls 380 +/- 6,3
# Protocol: Systolic blood pressure (SBP) and heart rate (HR) were measured, by the tail cuff method, in young prehypertensive male rats (MHS or SHR) strains before the development of hypertension (4 weeks of age) for recording the basal values of SBP. Groups of 7 rats were formed and subdivided in control and treated groups. The compound, suspended in Methocel 0.5% (w/v), was orally given daily for at least 5 weeks to the treated groups. The control group received only Methocel.
# SBP and HR were measured weekly 6 and 24 hrs after treatment. After 5 weeks of treatment, when hypertension was fully developed in the control group (9 weeks of age), washout was started for at least one week, to verify whether the treatment maintained blood pressure low or reestablished the basal values.
# [2] = biological target: T1, Na^+,K^+ -ATPase (Homo sapiens, UniProt P05023); assay: displacement of the specific 3H-ouabain binding from the purified Na+,K+-ATPase receptor
# T1 construct: Na^+,K^+ -ATPase receptor purified according to Jorghensen; from tissue
# Description: (§1) To test the affinity for the receptor site of the Na^+,K^+ -ATPase and the agonist or antagonist activity on the enzyme, the following tests were used:
# a) displacement of the specific ^3 H-ouabain binding from the Na^+,K^+ -ATPase receptor purified according to Jorghensen (Jorghensen P., BBA, 1974, 356, 36) and Erdmann (Erdmann E. et al., Arzneim. Forsh., 1984, 34, 1314);
# [3] = biological target: T1, Na^+,K^+ -ATPase; assay: inhibition of the activity of the purified Na+,K+-ATPase (% hydrolysis of 32P-ATP); type: biochemical
# Description: as §1
# b) inhibition of the activity of the purified Na^+,K^+ -ATPase measured as % of hydrolysis of ^32 P-ATP in presence and in absence of the tested compound (Doucet A. et al., Am. J. Physiol., 1986, 251, F851)
# [4] = 3H-ouabain, purified Na+,K+-ATPase, read-out: Binding 3H-Ouab. Displacement log IC50 (converted)
# [5] = 32P-ATP hydrolysis, purified Na+,K+-ATPase, read-out: Inhibitory Activity log IC50 (converted)
SMILES,SBP [1],HR [1],"IC50 [2, 4] [µM]","IC50 [3, 5] [µM]",IC50 [2] [µM],IC50 [3] [µM]
"CN(C)CCO/N=C/[C@H]1CC[C@]2(O)C[C@@H](c3ccccc3)CC[C@]12C [I-ap, (1S,3aS,5S,7aR)-1-[(E)-2-Dimethylaminoethoxyimino]methyl-5-phenyl-7a-methylperhydroinden-3a-ol]","155 +/- 4,3 mm Hg","370 +/- 10,5 bEATS/min.",2,39.8,,
"CN(C)CCO/N=C/[C@H]1CC[C@]2(O)C[C@@H](c3cccc(O)c3)CC[C@]12C [I-au, (1S,3aS,5S,7aR)-1-[(E)-2-Dimethylaminoethoxyimino]methyl-5-(3-hydroxyphenyl)-7a-methylperhydroinden-3a-ol]",,,6.31,50.1,,
"CN(C)CCO/N=C/[C@H]1CC[C@]2(O)C[C@@H](c3ccc(O)cc3)CC[C@]12C [I-ax, (1S,3aS,5S,7aR)-1-[(E)-2-Dimethylaminoethoxyimino]methyl-5-(4-hydroxyphenyl)-7a-methylperhydroinden-3a-ol]","156 +/- 4,6 mm Hg","383 +/- 11,4 bEATS/min.",1.58,39.8,,
"C[C@]12CC[C@H](c3ccc(CO)cc3)C[C@@]1(O)CC[C@@H]2/C=N/OCCN [I-bb, (1S,3aS,5S,7aR)-1-[(E)-2-Aminoethoxyimino]methyl-5-(4-hydroxymethylphenyl)-7a-methylperhydroinden-3a-ol]",,,1.58,25.1,,
"CN(C)CCO/N=C/[C@H]1CC[C@]2(O)C[C@@H](c3ccc(CO)cc3)CC[C@]12C [I-bc, (1S,3aS,5S,7aR)-1-[(E)-2-Dimethylaminoethoxyimino]methyl-5-(4-hydroxymethylphenyl)-7a-methylperhydroinden-3a-ol]","160 +/- 7,8 mm Hg","377 +/- 10,5 bEATS/min.",5.01,50.1,,
"Cc1ccc([C@H]2CC[C@]3(C)[C@@H](/C=N/OCCN)CC[C@]3(O)C2)cc1 [I-bg, (1S,3aS,5S,7aR)-1-[(E)-2-Aminoethoxyimino]methyl-5-(4-methylphenyl)-7a-methylperhydroinden-3a-ol oxalate]",,,,,3.98,31.6
"Cc1ccc([C@H]2CC[C@]3(C)[C@@H](/C=N/OCCN(C)C)CC[C@]3(O)C2)cc1 [I-bh, (1S,3aS,5S,7aR)-1-[(E)-2-Dimethylaminoethoxyimino]methyl-5-(4-methylphenyl)-7a-methylperhydroinden-3a-ol]",,,6.31,50.1,,
"CN(C)CCO/N=C/[C@H]1CC[C@]2(O)C/C(=C\CCO)CC[C@]12C [I-bx, (1S,3aS,7aR)-1-[(E)-2-Dimethylaminoethoxyimino]methyl-5-[(Z)-3-hydroxypropyliden]-7a-methylperhydroinden-3a-ol]",,,12.6,63.1,,
"CN(C)CCO/N=C/[C@H]1CC[C@]2(O)C/C(=C/CCO)CC[C@]12C [I-by, (1S,3aS,7aR)-1-[(E)-2-Dimethylaminoethoxyimino]methyl-5-[(E)-3-hydroxypropyliden]-7a-methylperhydroinden-3a-ol]",,,20,63.1,,
"CN(C)CCONC[C@H]1CC[C@]2(O)C[C@@H](c3ccccc3)CC[C@]12C [I-df, (1S,3aS,5S,7aR)-1-(2-Dimethylaminoethoxyamino)methyl-5-phenyl-7a-methylperhydroinden-3a-ol oxalate]",,,,,6.31,50.1
"CN(C)CCONC[C@H]1CC[C@]2(O)C[C@@H](c3cccc(O)c3)CC[C@]12C [I-di, (1S,3aS,5S,7aR)-1-(2-Dimethylaminoethoxyamino)methyl-5-(3-hydroxyphenyl)-7a-methylperhydroinden-3a-ol oxalate]",,,,,7.94,50.1
